# Patent publication US20260184697A1, “EZH1/2 INHIBITOR, PREPARATION THEREOF, AND USE THEREOF IN ANTI-TUMOR THERAPY” (JIANGSU TASLY DIYI PHARMACEUTICAL CO., LTD., priority 2022, published 2026)
# Tests used:
# EZH2/SUZ/EED = target: T1, EZH2/SUZ/EED (Homo sapiens, UniProt O75530+Q15022+Q15910); test: Inhibitory effect on EZH2 by the MTase-Glo method (Test Example 1); type: biochemical; conditions: EZH2/SUZ/EED 6.25 nM, H3 peptide 10 μM, SAM 3 μM, 30° C. 3 h, read-out: Test Example 1 WT EZH2 IC50
# T1 construct: purchased BPS 51003
# T1 sequence (Q15910 2-746 limits assumed): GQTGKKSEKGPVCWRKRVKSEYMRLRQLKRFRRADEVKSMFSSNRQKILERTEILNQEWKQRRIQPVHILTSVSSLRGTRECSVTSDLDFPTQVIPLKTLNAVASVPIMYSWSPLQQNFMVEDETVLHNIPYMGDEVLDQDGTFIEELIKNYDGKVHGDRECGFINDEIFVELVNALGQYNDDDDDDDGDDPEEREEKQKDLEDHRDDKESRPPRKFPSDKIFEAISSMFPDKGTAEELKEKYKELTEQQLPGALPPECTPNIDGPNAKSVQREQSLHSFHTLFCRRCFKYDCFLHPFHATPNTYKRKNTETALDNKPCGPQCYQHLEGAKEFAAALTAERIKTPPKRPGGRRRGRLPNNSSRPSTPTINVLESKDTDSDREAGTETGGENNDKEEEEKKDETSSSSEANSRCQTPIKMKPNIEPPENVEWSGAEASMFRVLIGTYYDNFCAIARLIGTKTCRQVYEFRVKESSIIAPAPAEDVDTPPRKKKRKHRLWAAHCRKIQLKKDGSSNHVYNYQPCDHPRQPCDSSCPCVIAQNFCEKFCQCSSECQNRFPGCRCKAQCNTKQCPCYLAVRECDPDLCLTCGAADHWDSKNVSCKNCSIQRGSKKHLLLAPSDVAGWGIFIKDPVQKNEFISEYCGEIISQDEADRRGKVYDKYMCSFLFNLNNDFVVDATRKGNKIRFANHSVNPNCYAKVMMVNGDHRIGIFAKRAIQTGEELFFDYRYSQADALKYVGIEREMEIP
# T1 sequence (Q15022 2-739 partner limits assumed): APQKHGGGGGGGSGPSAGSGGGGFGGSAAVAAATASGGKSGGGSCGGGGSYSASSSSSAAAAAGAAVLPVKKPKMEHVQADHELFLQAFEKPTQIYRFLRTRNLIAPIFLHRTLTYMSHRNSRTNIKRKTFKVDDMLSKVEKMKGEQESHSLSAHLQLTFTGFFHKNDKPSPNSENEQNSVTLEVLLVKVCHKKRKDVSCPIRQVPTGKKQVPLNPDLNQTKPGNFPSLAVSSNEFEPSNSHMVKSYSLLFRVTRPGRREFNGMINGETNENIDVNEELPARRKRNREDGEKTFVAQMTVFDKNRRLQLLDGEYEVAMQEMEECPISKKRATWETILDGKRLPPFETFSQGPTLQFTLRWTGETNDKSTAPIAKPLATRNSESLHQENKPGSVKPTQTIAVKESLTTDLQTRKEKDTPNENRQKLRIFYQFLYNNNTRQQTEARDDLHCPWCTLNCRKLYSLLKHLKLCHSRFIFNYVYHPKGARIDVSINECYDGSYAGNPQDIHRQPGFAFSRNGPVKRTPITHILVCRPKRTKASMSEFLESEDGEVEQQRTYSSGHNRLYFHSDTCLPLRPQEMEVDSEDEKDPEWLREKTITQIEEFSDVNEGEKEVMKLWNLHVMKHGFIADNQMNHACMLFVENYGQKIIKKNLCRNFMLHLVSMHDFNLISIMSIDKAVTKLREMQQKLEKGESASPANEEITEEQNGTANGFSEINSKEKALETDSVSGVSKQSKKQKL
# T1 sequence (O75530 2-441 partner limits assumed): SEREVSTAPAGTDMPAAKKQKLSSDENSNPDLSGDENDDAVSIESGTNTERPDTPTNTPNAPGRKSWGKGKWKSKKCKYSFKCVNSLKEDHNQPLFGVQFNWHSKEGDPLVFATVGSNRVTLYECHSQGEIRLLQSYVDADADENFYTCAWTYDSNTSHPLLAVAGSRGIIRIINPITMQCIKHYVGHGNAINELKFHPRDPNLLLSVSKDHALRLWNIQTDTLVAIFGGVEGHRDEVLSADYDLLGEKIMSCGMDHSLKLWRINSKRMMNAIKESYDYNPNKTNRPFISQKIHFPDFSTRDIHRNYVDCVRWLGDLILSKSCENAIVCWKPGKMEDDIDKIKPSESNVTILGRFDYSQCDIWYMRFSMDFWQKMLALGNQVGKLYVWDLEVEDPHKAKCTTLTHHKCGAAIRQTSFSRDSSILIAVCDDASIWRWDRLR
# Procedure: (§1) The compound was dissolved in DMSO, and the compound was serially diluted using ECHO665 and transferred to a 384-well reaction plate (Corning, 3824). A sample containing only DMSO was added as a positive control (maximum signal control) and a negative control (minimum signal control), while ensuring that the final DMSO content in each reaction well was 0.5%. The protein was configured in reaction buffer (50 mM Bicine, 0.01% Triton X-100, 1 mM DTT, 0.01% BSA, pH 7.6), such that the final reaction concentrations of EZH2/SUZ/EED (BPS, 51003) protein solution and EZH1/SUZ/EED (BPS, 51006) were 6.25 nM and 25 nM, respectively. The negative control (minimum signal control) used an equal amount of buffer instead of protein solution. The prepared protein solution was added to the 384-well reaction plate and pre-incubated at room temperature for 15 minutes. The mixture of the substrate H3 peptide fragment (custom-synthesized by GenScript, biotinylated Histone H3(21-44) peptide ([…]-GG-K(Biotin)-OH)) prepared in the reaction buffer and SAM (Promega, V7601) was added into the 384-well plate, such that the final reaction concentration of H3 peptide fragment was 10 μM, and the final concentration of SAM was 3 μM. The mixture was centrifuged at 1000 rpm for 1 min. The 384-well reaction plate was placed in a constant temperature shaker and incubate at 30° C. for 3 h at a speed of 300 rpm. Then the detection reagent was added according to the experimental process of the kit MTase-Glo (Promega, V7601) and incubated.
# (§2) After incubation, read with BMG PHERAStar. The luminescence signals obtained by positive control (maximum signal control) and negative control (minimum signal control) were normalized to obtain the inhibition rate of different concentrations of compounds. Then, the IC50 of the compound on the enzyme activity inhibition was calculated by GraphPad Prism 6 with log(inhibitor) vs. response-Variable slope model fitting. The fitting equation is: Y=Bottom+(Top−Bottom)/(1+10^((Log IC50−X)*HillSlope)), wherein Y represents the known percentage remaining enzyme activity, and X represents the known activity after Log compound concentration.
# EZH1/SUZ/EED = target: T2, EZH1/SUZ/EED (Homo sapiens, UniProt O75530+Q15022+Q92800); test: Inhibitory effect on EZH1 by the MTase-Glo method (Test Example 1); type: biochemical; conditions: EZH1/SUZ/EED 25 nM, H3 peptide 10 μM, SAM 3 μM, 30° C. 3 h, read-out: Test Example 1 WT EZH1 IC50
# T2 construct: purchased BPS 51006
# T2 sequence (Q92800 2-747 limits assumed): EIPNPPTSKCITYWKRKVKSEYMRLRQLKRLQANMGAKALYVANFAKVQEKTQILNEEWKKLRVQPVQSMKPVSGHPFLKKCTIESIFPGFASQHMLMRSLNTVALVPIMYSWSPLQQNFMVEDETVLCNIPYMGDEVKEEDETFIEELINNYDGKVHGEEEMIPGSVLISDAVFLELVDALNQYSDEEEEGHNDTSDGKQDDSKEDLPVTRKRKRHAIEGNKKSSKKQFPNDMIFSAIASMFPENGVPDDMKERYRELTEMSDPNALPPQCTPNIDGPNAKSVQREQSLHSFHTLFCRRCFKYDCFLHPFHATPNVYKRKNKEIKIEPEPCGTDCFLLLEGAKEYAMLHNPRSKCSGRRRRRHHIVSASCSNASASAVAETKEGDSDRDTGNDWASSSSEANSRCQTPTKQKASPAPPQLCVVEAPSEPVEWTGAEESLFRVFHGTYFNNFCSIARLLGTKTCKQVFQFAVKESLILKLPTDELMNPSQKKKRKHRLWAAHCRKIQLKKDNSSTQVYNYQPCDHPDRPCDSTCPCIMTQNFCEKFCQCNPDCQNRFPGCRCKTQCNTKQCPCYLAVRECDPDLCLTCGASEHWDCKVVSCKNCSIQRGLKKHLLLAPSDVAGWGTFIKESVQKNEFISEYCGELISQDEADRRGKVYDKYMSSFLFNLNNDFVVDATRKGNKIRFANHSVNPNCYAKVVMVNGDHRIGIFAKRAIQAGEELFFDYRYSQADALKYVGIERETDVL
# T2 sequence (Q15022 2-739 partner limits assumed): as the sequence (Q15022 2-739 partner limits assumed) above
# T2 sequence (O75530 2-441 partner limits assumed): as the sequence (O75530 2-441 partner limits assumed) above
# Procedure: as §1, §2
Structure (SMILES),IC50 (EZH2/SUZ/EED),IC50 (EZH1/SUZ/EED)
COc1c(Cl)c2c(c(C)c1C(=O)NCc1c(C)cc(C)[nH]c1=O)O[C@@H](C1CCC(N(C)C)CC1)CO2 (mixture of isomers) [Compound 133],16.6 nM,584 nM
"Cc1cc(C)c(CNC(=O)c2cc(Cl)c3c(c2C)OC(C2CCC(NC4CC(F)C4)CC2)CO3)c(=O)[nH]1 (single isomer, unassigned) [Compound 65]",29.7 nM,641 nM
"Cc1cc(C)c(CNC(=O)c2cc(Cl)c3c(c2C)OC(C2CCC(NC4CC(F)(F)C4)CC2)CO3)c(=O)[nH]1 (single isomer, unassigned) [Compound 66]",24.4 nM,687 nM
"Cc1cc(C)c(CNC(=O)c2cc(Cl)c3c(c2C)OC(C2CCC(NC4CC(F)(F)C4)CC2)CO3)c(=O)[nH]1 (single isomer, unassigned) [Compound 67]",47.6 nM,367 nM
"COC1(C(F)(F)F)CN(C2CCC(C3COc4c(Cl)cc(C(=O)NCc5c(C)cc(C)[nH]c5=O)c(C)c4O3)CC2)C1 (single isomer, unassigned) [Compound 68]",59.3 nM,> 10000 nM
"COC1(C(F)(F)F)CN(C2CCC(C3COc4c(Cl)cc(C(=O)NCc5c(C)cc(C)[nH]c5=O)c(C)c4O3)CC2)C1 (single isomer, unassigned) [Compound 69]",84.6 nM,879 nM
"Cc1cc(C)c(CNC(=O)c2cc(Cl)c3c(c2C)OC(C2CCC(N4CC(F)C4)CC2)CO3)c(=O)[nH]1 (single isomer, unassigned) [Compound 71]",41.8 nM,564 nM
"CON(C)C1CCC(C2COc3c(Cl)cc(C(=O)NCc4c(C)cc(C)[nH]c4=O)c(C)c3O2)CC1 (single isomer, unassigned) [Compound 79]",2 nM,
Cc1cc(C)c(CNC(=O)c2cc(Cl)c3c(c2C)OC(C2CCN(C)CC2)CO3)c(=O)[nH]1 (stereo not drawn) [Compound 1],27.5 nM,1300 nM
Cc1cc(C)c(CNC(=O)c2ccc3c(c2C)COC(C)(C2CCC(N(C)C)CC2)O3)c(=O)[nH]1 (stereo not drawn) [Compound 4],7210 nM,
CSc1cc(C)[nH]c(=O)c1CNC(=O)c1cc(Cl)c2c(c1C)O[C@@H]([C@H]1CC[C@H](N3CC(OC4CC4)C3)CC1)CO2 [Compound 10],158 nM,
CSc1cc(C)[nH]c(=O)c1CNC(=O)c1cc(Cl)c2c(c1C)O[C@H]([C@H]1CC[C@@H](N3CC(OC4CC4)C3)CC1)CO2 [Compound 13],17.7 nM,
[2H]C([2H])([2H])OC1CN([C@H]2CC[C@H]([C@H]3COc4c(Cl)cc(C(=O)NCc5c(SC)cc(C)[nH]c5=O)c(C)c4O3)CC2)C1 [Compound 21],6.4 nM,18.9 nM
CSc1cc(C)[nH]c(=O)c1CNC(=O)c1cc(Cl)c2c(c1C)O[C@H](C1CCN(CC3CC3)CC1)CO2 [Compound 31],66.3 nM,491 nM
CO[C@H]1CCN([C@H]2CC[C@@H]([C@H]3COc4c(Cl)cc(C(=O)NCc5c(SC)cc(C)[nH]c5=O)c(C)c4O3)CC2)C1 [Compound 39],4 nM,7.3 nM
CO[C@@H]1CCN([C@H]2CC[C@@H]([C@H]3COc4c(Cl)cc(C(=O)NCc5c(SC)cc(C)[nH]c5=O)c(C)c4O3)CC2)C1 [Compound 41],4.3 nM,3.9 nM
COC1C2CN([C@H]3CC[C@H]([C@H]4COc5c(Cl)cc(C(=O)NCc6c(SC)cc(C)[nH]c6=O)c(C)c5O4)CC3)CC21 (stereo partly drawn) [Compound 44],,13.5 nM
Cc1cc(C)c(CNC(=O)c2cc(Cl)c3c(c2C)O[C@H]([C@H]2CC[C@H](N4CC5COCC5C4)CC2)CO3)c(=O)[nH]1 (stereo partly drawn) [Compound 72],1250 nM,> 10000 nM
Cc1cc(C)c(CNC(=O)c2cc(Cl)c3c(c2C)O[C@H]([C@H]2CC[C@@H](N4CC5COCC5C4)CC2)CO3)c(=O)[nH]1 (stereo partly drawn) [Compound 74],998 nM,> 10000 nM
Cc1cc(C)c(CNC(=O)c2cc(Cl)c3c(c2C)OC(C2CCN(C(C)C)CC2)CO3)c(=O)[nH]1 (stereo not drawn) [Compound 82],85.1 nM,
Cc1cc(C)c(CNC(=O)c2cc(Cl)c3c(c2C)OC(C2CCN(CC4COC4)CC2)CO3)c(=O)[nH]1 (stereo not drawn) [Compound 83],8.2 nM,
Cc1cc(C)c(CNC(=O)c2cc(Cl)c3c(c2C)OC(C2CCN(C4COC4)CC2)CO3)c(=O)[nH]1 (stereo not drawn) [Compound 84],11 nM,
Cc1cc(C)c(CNC(=O)c2cc(Cl)c3c(c2C)O[C@H](C2CCN(CC4COC4)CC2)CO3)c(=O)[nH]1 [Compound 87],780 nM,

Structure (SMILES),IC50 (EZH2/SUZ/EED),IC50 (EZH1/SUZ/EED)
Cc1cc(C)c(CNC(=O)c2cc(Cl)c3c(c2C)O[C@H](C2CCN(C4COC4)CC2)CO3)c(=O)[nH]1 [Compound 89],1840 nM,
Cc1cc(C)c(CNC(=O)c2cc(Cl)c3c(c2C)O[C@@H](C2CCN(CC4CC4)CC2)CO3)c(=O)[nH]1 [Compound 90],18.6 nM,945 nM
CON=C1CCC([C@H]2COc3c(Cl)cc(C(=O)NCc4c(C)cc(C)[nH]c4=O)c(C)c3O2)CC1 (stereo partly drawn) [Compound 93],6 nM,132 nM
COc1cc(C)[nH]c(=O)c1CNC(=O)c1cc(Cl)c2c(c1C)O[C@@H]([C@H]1CC[C@@H](N3CC4COCC4C3)CC1)CO2 (stereo partly drawn) [Compound 95],11.6 nM,227 nM
COc1cc(C)[nH]c(=O)c1CNC(=O)c1cc(Cl)c2c(c1C)O[C@@H]([C@H]1CC[C@H](N3CC4COCC4C3)CC1)CO2 (stereo partly drawn) [Compound 96],7 nM,167 nM
COc1cc(C)[nH]c(=O)c1CNC(=O)c1cc(Cl)c2c(c1C)O[C@H]([C@H]1CC[C@H](N3CC(OC)C3)CC1)CO2 [Compound 99],93.4 nM,
COc1cc(C)[nH]c(=O)c1CNC(=O)c1cc(Cl)c2c(c1C)O[C@H]([C@H]1CC[C@@H](N3CC(OC)C3)CC1)CO2 [Compound 100],128 nM,
COCCOC1CN([C@H]2CC[C@H]([C@H]3COc4c(Cl)cc(C(=O)NCc5c(OC)cc(C)[nH]c5=O)c(C)c4O3)CC2)C1 [Compound 102],2.6 nM,655 nM
COCCN(C)[C@H]1CC[C@H]([C@H]2COc3c(Cl)cc(C(=O)NCc4c(OC)cc(C)[nH]c4=O)c(C)c3O2)CC1 [Compound 108],5 nM,69.3 nM
COc1cc(C)[nH]c(=O)c1CNC(=O)c1cc(Cl)c2c(c1C)O[C@@H]([C@H]1CC[C@@H](N3CC4(CC4)C3)CC1)CO2 [Compound 111],13.4 nM,27.3 nM
COc1cc(C)[nH]c(=O)c1CNC(=O)c1cc(Cl)c2c(c1C)O[C@@H]([C@H]1CC[C@H](N3CC4(CC4)C3)CC1)CO2 [Compound 112],,49.9 nM
COc1cc(C)[nH]c(=O)c1CNC(=O)c1cc(Cl)c2c(c1C)O[C@@H]([C@H]1CC[C@H](N3CC4CC4C3)CC1)CO2 (stereo partly drawn) [Compound 114],,267 nM
COc1cc(C)[nH]c(=O)c1CNC(=O)c1cc(Cl)c2c(c1C)O[C@@H]([C@H]1CC[C@H](N3CC4C(C3)C4OC)CC1)CO2 (stereo partly drawn) [Compound 116],,156 nM
COc1cc(C)[nH]c(=O)c1CNC(=O)c1cc(Cl)c2c(c1C)O[C@@H](C1CCC(OCCF)CC1)CO2 (stereo partly drawn) [Compound 123],,84 nM
Cc1cc(C)c(CN(C)C(=O)c2cc(Cl)c3c(c2C)O[C@@H]([C@H]2CC[C@@H](N(C)C)CC2)CO3)c(=O)[nH]1 [Compound 127],25.5 nM,
COc1cc(C)[nH]c(=O)c1CN(C)C(=O)c1cc(Cl)c2c(c1C)O[C@@H]([C@H]1CC[C@@H](N(C)C)CC1)CO2 [Compound 129],3.9 nM,
COc1cc(C)[nH]c(=O)c1CNC(=O)c1cc(Cl)c2c(c1Cl)O[C@@H]([C@H]1CC[C@H](N3CC(OC)C3)CC1)CO2 [Compound 152],,126 nM
Cc1cc(C2CC2)c(CNC(=O)c2cc(Cl)c3c(c2C)O[C@@H]([C@H]2CC[C@@H](N(C)C)CC2)CO3)c(=O)[nH]1 [Compound 157],,190 nM
Cc1cc(C2CC2)c(CNC(=O)c2cc(Cl)c3c(c2C)O[C@@H]([C@H]2CC[C@H](N(C)C)CC2)CO3)c(=O)[nH]1 [Compound 158],,3440 nM
CSc1cc(C)[nH]c(=O)c1CNC(=O)c1cc(C#N)c2c(c1C)O[C@@H]([C@H]1CC[C@H](N3CC(OC4CC4)C3)CC1)CO2 [Compound 160],,31.6 nM
CSc1cc(C)[nH]c(=O)c1CNC(=O)c1cc(C#N)c2c(c1C)O[C@@H]([C@H]1CC[C@H](N3CC(OCCF)C3)CC1)CO2 [Compound 162],,29.3 nM
[2H]C([2H])([2H])Sc1cc(C)[nH]c(=O)c1CNC(=O)c1cc(Cl)c2c(c1C)O[C@@H](C1CCC(N3CC(OC)C3)CC1)CO2 (stereo partly drawn) [Compound 178],,17.5 nM
